What follows are molecules tested against CDK2 (human) (UniProt P24941) (assay: Enzyme Assay). Settings: concentration not given here.

| Structure (SMILES) | inhibition [%] |
| --- | --- |
| COc1ccc(C(=O)N2CCC(Nc3nc(N)c(C(=O)c4c(F)cccc4F)s3)CC2)c(Cl)c1 | 52 |
| Nc1nc(NC2CCN(C(=O)/C=C/c3ccc4c(c3)CCC4)CC2)sc1C(=O)c1c(F)cccc1F | 48 |
| Nc1nc(NC2CCN(C(=O)/C=C/c3cccc(F)c3)CC2)sc1C(=O)c1c(F)cccc1F | 70 |
| Cc1ccc(CCCC(=O)N2CCC(Nc3nc(N)c(C(=O)c4c(F)cccc4F)s3)CC2)c(C)c1 | 35 |
| Nc1nc(NC2CCN(S(=O)(=O)c3cccc4cccnc34)CC2)sc1C(=O)c1c(F)cccc1F | -32 |
| COc1ccccc1/C=C/C(=O)N1CCC(Nc2nc(N)c(C(=O)c3c(F)cccc3F)s2)CC1 | 92 |
| CCCC/C=C/CC(=O)N1CCC(Nc2nc(N)c(C(=O)c3c(F)cccc3F)s2)CC1 | 22 |
| CC(O)(CC(=O)N1CCC(Nc2nc(N)c(C(=O)c3c(F)cccc3F)s2)CC1)C(F)(F)F (stereo not given) | 64 |
| Nc1nc(NC2CCN(C(=O)[C@H](O)Cc3ccccc3)CC2)sc1C(=O)c1c(F)cccc1F | 42 |
| Nc1nc(NC2CCN(C(=O)COc3cccc(Cl)c3)CC2)sc1C(=O)c1c(F)cccc1F | 67 |
| CN(C(=O)N1CCC(Nc2nc(N)c(C(=O)c3c(F)cccc3F)s2)CC1)c1ccccc1 | -7 |
| COc1ccccc1/C=C\C(=O)N1CCC(Nc2nc(N)c(C(=O)c3c(F)cccc3F)s2)CC1 | 70 |
| CC(C)CCC(=O)N1CCC(Nc2nc(N)c(C(=O)c3c(F)cccc3F)s2)CC1 | 27 |
| CCOC(=O)CCC(=O)N1CCC(Nc2nc(N)c(C(=O)c3c(F)cccc3F)s2)CC1 | 54 |
| CCCC(CC)CC(=O)N1CCC(Nc2nc(N)c(C(=O)c3c(F)cccc3F)s2)CC1 (stereo not given) | 31 |
| Nc1cc(C(=O)N2CCC(Nc3nc(N)c(C(=O)c4c(F)cccc4F)s3)CC2)ccc1Cl | 50 |
| CC(Oc1ccccc1)C(=O)N1CCC(Nc2nc(N)c(C(=O)c3c(F)cccc3F)s2)CC1 (stereo not given) | -15 |
| CO[C@@H](C(=O)N1CCC(Nc2nc(N)c(C(=O)c3c(F)cccc3F)s2)CC1)c1ccccc1 | 54 |

| Structure (SMILES) | inhibition [%] |
| --- | --- |
| Nc1nc(NC2CCN(C(=O)c3ccccc3OC(F)(F)F)CC2)sc1C(=O)c1c(F)cccc1F | -6 |
| C/C=C/CC(=O)N1CCC(Nc2nc(N)c(C(=O)c3c(F)cccc3F)s2)CC1 | 62 |
| CO[C@](C(=O)N1CCC(Nc2nc(N)c(C(=O)c3c(F)cccc3F)s2)CC1)(c1ccccc1)C(F)(F)F | -29 |
| Cc1c(S(=O)(=O)c2ccc(Cl)cc2)csc1C(=O)N1CCC(Nc2nc(N)c(C(=O)c3c(F)cccc3F)s2)CC1 | -7 |
| Nc1nc(NC2CCN(C(=O)CS/C=C\c3ccccc3)CC2)sc1C(=O)c1c(F)cccc1F | 59 |
| CC1CC1C(=O)N1CCC(Nc2nc(N)c(C(=O)c3c(F)cccc3F)s2)CC1 (stereo not given) | -10 |
| C[C@H](O)C(=O)N1CCC(Nc2nc(N)c(C(=O)c3c(F)cccc3F)s2)CC1 | 67 |
| Nc1nc(NC2CCN(C(=O)C/C=C/c3ccccc3)CC2)sc1C(=O)c1c(F)cccc1F | 29 |
| COc1ccc(C2(C(=O)N3CCC(Nc4nc(N)c(C(=O)c5c(F)cccc5F)s4)CC3)CC2)cc1 | 37 |
| C=CCC(=O)N1CCC(Nc2nc(N)c(C(=O)c3c(F)cccc3F)s2)CC1 | 15 |
| Cc1c(F)cccc1C(=O)N1CCC(Nc2nc(N)c(C(=O)c3c(F)cccc3F)s2)CC1 | 36 |
| Nc1nc(NC2CCN(C(=O)/C=C/c3cccs3)CC2)sc1C(=O)c1c(F)cccc1F | 43 |
| Cc1ccc(C2(C(=O)N3CCC(Nc4nc(N)c(C(=O)c5c(F)cccc5F)s4)CC3)CC2)cc1 | 41 |
| Cc1ncccc1C(=O)N1CCC(Nc2nc(N)c(C(=O)c3c(F)cccc3F)s2)CC1 | 52 |
| COC(=O)CCCCC(=O)N1CCC(Nc2nc(N)c(C(=O)c3c(F)cccc3F)s2)CC1 | -5 |
| Cc1ccc2[nH]c(C(=O)N3CCC(Nc4nc(N)c(C(=O)c5c(F)cccc5F)s4)CC3)cc2c1 | 54 |
| Nc1nc(NC2CCN(C(=O)c3cccs3)CC2)sc1C(=O)c1c(F)cccc1F | 80 |

— the Kinase Knowledgebase extract (Sharma et al. 2016)
